Legend:
Type in all cases: cell-based, mouse
[1] = system: BV-2 and primary microglia stimulated with IFNγ and LPS; assay: RT-PCR of inflammatory transcripts in IFNγ/LPS stimulated microglia; settings: 200 μM GCV, 24 hours
Method: BV-2 mouse microglia cells were grown in DMEM+10% FBS and THP-1 human monocyte cells were grown in RPMI-40+10% FBS+0.05 mM β-mercaptoethanol at 37° C., 5% CO2. Adherent cells were split using 1×TrypLE (Gibco). For cellular assays, cells were treated with the following concentrations of drugs as indicated in the DMEM without serum: 100-200 μM ganciclovir, 10 ng/ml IFNγ (R&D systems), 100 ng/ml LPS (Sigma-Aldrich), 1-10 μM Fludarabine (Selleckchem), 1 μM Ruxolitinib (Selleckchem), 1 μM TG-101348 (Selleckchem), 1 μM Amlexanox (Tocris bioscience) unless otherwise noted. All experiments were run in triplicates and replicated at least 3 times with cell lines and at least twice with primary microglia. Average data are shown for cell lines and representative data are shown for primary cells. Secreted signaling proteins were measured in supernatants from cultured cells stimulated with GCV and conditioned for 24 hours in the absence of serum using two independent Luminex arrays (Human Immune Monitoring Center, Stanford and Eve technologies, Canada). Nitrite assay was performed on conditioned culture supernatants of cells stimulated with drugs for 24 hours using the Griess Reagent System (Promega) according to manufacturer's instructions. To assess cellular viability, cell confluence was measured using an automated microscope (Cellavista; Roche). Mice were housed and bred according to the Institutional Animal Care and Use Committee guidelines. Primary microglia and astrocytes were isolated from P0-P3 C57BL/6 mouse pups. Cortices from pups were isolated, meninges removed and tissue was dissociated using a 25-gauge needle. Two cortices were plated on each poly-L-lysine coated T-75 flasks in DMEM/F12+10% FBS+1% penicillin/streptomycin. Microglia and astrocyte co-cultures were maintained for 3 weeks, after which microglia were isolated using CD11b magnetic beads (Miltenyi Biotec) according to the manufacturer's instructions. Isolated microglia were allowed to recover for 1-2 days and processed for cellular assays described above. RNA was isolated from cells using RNeasy mini kit from Qiagen. […] was converted to cDNA using SuperScript III reverse transcriptase kit (Life technologies). The cDNA was used to quantify specific targets using SYBR green in Roche Lightcycler 480. ΔΔCt values normalized against the experimental control to determine fold change in mRNA for each sample compared to untreated or vehicle treated control. β-actin or Ubc or both were used as housekeeping genes. Primer sequences were obtained from PrimerBank. Fold change is shown compared to the vehicle treated or untreated cells, unless otherwise noted.

[2] = system: IFNγ/LPS stimulated BV-2 microglia; assay: Nitrite assay (Griess) on culture supernatants; settings: 24 hours
Method: BV-2 mouse microglia cells were grown in DMEM+10% FBS and THP-1 human monocyte cells were grown in RPMI-40+10% FBS+0.05 mM β-mercaptoethanol at 37° C., 5% CO2. Adherent cells were split using 1×TrypLE (Gibco). For cellular assays, cells were treated with the following concentrations of drugs as indicated in the DMEM without serum: 100-200 μM ganciclovir, 10 ng/ml IFNγ (R&D systems), 100 ng/ml LPS (Sigma-Aldrich), 1-10 μM Fludarabine (Selleckchem), 1 μM Ruxolitinib (Selleckchem), 1 μM TG-101348 (Selleckchem), 1 μM Amlexanox (Tocris bioscience) unless otherwise noted. All experiments were run in triplicates and replicated at least 3 times with cell lines and at least twice with primary microglia. Average data are shown for cell lines and representative data are shown for primary cells. Secreted signaling proteins were measured in supernatants from cultured cells stimulated with GCV and conditioned for 24 hours in the absence of serum using two independent Luminex arrays (Human Immune Monitoring Center, Stanford and Eve technologies, Canada). Nitrite assay was performed on conditioned culture supernatants of cells stimulated with drugs for 24 hours using the Griess Reagent System (Promega) according to manufacturer's instructions. To assess cellular viability, cell confluence was measured using an automated microscope (Cellavista; Roche).

BV-2 microglia = assay: siRNA knockdown (STING, IRF3, Stat1, Jak2), then RT-PCR for CXCL10
Method: Smartpool siRNAs against mouse targets were bought from Dharmacon and transfected in microglia cells using Viromer Blue from Lipocalyx at a concentration of 50 nM according to manufacturer's instructions. Drugs were added cells after 24 hours of transfection and assays done 24 hours after addition of drugs.
RNA was isolated from cells using RNeasy mini kit from Qiagen. DNased RNA was converted to cDNA using SuperScript III reverse transcriptase kit (Life technologies). The cDNA was used to quantify specific targets using SYBR green in Roche Lightcycler 480. ΔΔCt values normalized against the experimental control to determine fold change in mRNA for each sample compared to untreated or vehicle treated control. β-actin or Ubc or both were used as housekeeping genes. Primer sequences were obtained from PrimerBank. Fold change is shown compared to the vehicle treated or untreated cells, unless otherwise noted.

[3] = BV-2 and primary microglia stimulated with IFNγ and LPS
[4] = IFNγ/LPS-stimulated STING^gt/gt primary microglia
[5] = BV-2 microglia, siRNA 24 hours, then 200 μM for 24 hours

## Nc1nc(O)c2ncn(COC(CO)CO)c2n1 [GCV, Ganciclovir]
[1]; [3]
  CCL2 transcript: almost complete transcriptional inhibition
  iNOS transcript: almost complete transcriptional inhibition
[1]; [4]
  iNOS and CCL2 transcripts in GCV treated STING^gt/gt microglia: higher
  reduction of inflammatory markers in STING^gt/gt primary microglia: unable to do so
[1]; IFNγ/LPS-stimulated wildtype primary microglia
  inflammatory markers in wildtype primary microglia: reduced
[2]
  microglial nitric oxide production (nitrite assay): reduction
BV-2 microglia; BV-2 cells (siRNA) or Stat1 knockout primary microglia, 200 μM
  CXCL10 or IFNβ mRNA expression after siRNA knockdown of Stat1 and Jak2 or lack of Stat1: significantly reduced
BV-2 microglia; [5]
  capacity to induce CXCL10 after siRNA knock down of STING: to a lesser extent
  potential to induce CXCL10 mRNA after siRNA knockdown of IRF3: inhibited

Source: patent publication US9809597B2, “Ganciclovir derivatives for modulating innate and adaptive immunity and for use in immunotherapy” (The Board of Trustees of the Leland Stanford Junior …, priority 2015, dated 2017)
